This experiment deals with cancer cell lines. The experiment in a line: Anti-cancer activity, CellTiter-Glo luminescence after 72 hours compound treatment. Conditions: cell line not stated, 4-parameter fit inflection point (IC50). Format: cell-based. As to the method: Compounds to be tested for anti-cancer activity were submitted dry, dissolved to 10 mM stocks in DMSO, and stored protected from light at −80° C. until use. DMSO vehicle control wells, and 3 fold serial dilutions of compounds from 10 mM to 6.2 nM were prepared in 384 well plates. Kinamycin and tamoxifen were also added as controls in this manner.
LN2 aliquots of cancer cells (indicated in the tables of FIGS. 3 and 4) were cultured at YCMD and plated in Corning 3707 TC plates at 400 cells/well initial seeding density in 20 uL of growth medium. Cells were incubated overnight at 37′C in a humidified 5% CO2 incubator, and treated with compounds.
20 nL of compound was dispensed into the assay plates using a 384-well pin tool on the Tecan Aquarius. Final assay compound treatments ranged from 10 uM to 6.2 pM, 0.1% DMSO. […]
For assay readout CellTiter-Glo (Promega) was prepared according to manufacturer's instructions and 20 uL/well was added to assay plates using a MultiDrop. Luminescence was read on an Envision plate reader (Perkin Elmer) with 0.3 second sampling time per well after a 10 min. room temperature incubation in the dark.
Toxic effects have low luminescence signal relative to the vehicle control […]. Raw data (luminescence counts per second) were normalized to percent effect by the formula: […]. […]
On the technique in general: In ATP-based viability assays light output follows the ATP content of the culture.

The structures appear in SMILES notation.

One may read the IC50 as the concentration at which inhibition is half-maximal. The low end stands for inhibition by little substance, the high end for a need for much substance. Compound `C[C@H](N)CCc1c2c(cc(=O)n1Cc1nc(-c3nc(C(=O)NCCN(C)C)cs3)cs1)C1(CC1)NC2=O` [compound 17a] showed an IC50 of 35 nM.
Turning to `CSCCCNC(=O)c1csc(-c2csc(Cn3c(CC[C@H](C)NC(=O)OC(C)(C)C)c4c(cc3=O)C3(CC3)NC4=O)n2)n1` [compound S4], inhibition was half-maximal at 11 nM (IC50).

Source of the values: US10316037B1, “Compounds and methods for treating cancer” (YALE UNIVERSITY, priority 2016, dated 2019).
